Assays:
[1] = tested on: Sagittaria pygmaea, L.; assay: Preemergence weed control under flooded paddy conditions, SAGPY (Arrowhead (Pygmaea)); format: in vivo; conditions: preemergence, flooded paddy, rated three to four weeks after treatment
[2] = tested on: Echinochloa oryzoides (Ard.) Fritsch.; assay: Preemergence weed control under flooded paddy conditions, ECHORC (Watergrass (Calif.)); format: in vivo; conditions: preemergence, flooded paddy, rated three to four weeks after treatment
[3] = tested on: Cyperus serotinus, Rottb.; assay: Preemergence weed control under flooded paddy conditions, CYPSE (Flatsedge); format: in vivo; conditions: preemergence, rated three to four weeks after treatment
[4] = tested on: Cyperus iria; assay: Preemergence weed control under flooded paddy conditions, CYPIR (Rice Flatsedge); format: in vivo; conditions: preemergence, flooded paddy, rated three to four weeks after treatment
[5] = tested on: Oryza sativa, (L.) Tebonnet; assay: Rice tolerance to post-transplant applications under flooded paddy conditions (Example 187), ORYSAT (Rice, Tebonnet); conditions: rated three to four weeks after treatment
[6] = tested on: Monochoria vaginalis, Presl.; assay: Preemergence weed control under flooded paddy conditions, MOOVA (Monochoria); format: in vivo; conditions: preemergence, flooded paddy, rated three to four weeks after treatment

Compound | SAGPY herbicidal effect rating ([1]; Rate 0.0313 kg/ha) | SAGPY herbicidal effect rating ([1]; Rate 0.0625 kg/ha) | SAGPY herbicidal effect rating ([1]; Rate 0.1250 kg/ha) | SAGPY herbicidal effect rating ([1]; Rate 0.2500 kg/ha) | ECHORC herbicidal effect rating ([2]; Rate 0.0313 kg/ha) | ECHORC herbicidal effect rating ([2]; Rate 0.0625 kg/ha) | ECHORC herbicidal effect rating ([2]; Rate 0.1250 kg/ha) | ECHORC herbicidal effect rating ([2]; Rate 0.2500 kg/ha) | CYPSE herbicidal effect rating ([3]; Rate 0.0313 kg/ha) | CYPSE herbicidal effect rating ([3]; Rate 0.0625 kg/ha) | CYPSE herbicidal effect rating ([3]; Rate 0.1250 kg/ha) | CYPSE herbicidal effect rating ([3]; Rate 0.2500 kg/ha) | CYPIR herbicidal effect rating ([4]; Rate 0.0313 kg/ha) | CYPIR herbicidal effect rating ([4]; Rate 0.0625 kg/ha) | CYPIR herbicidal effect rating ([4]; Rate 0.1250 kg/ha) | CYPIR herbicidal effect rating ([4]; Rate 0.2500 kg/ha) | ORYSAT herbicidal effect rating ([5]; Rate 0.1250 kg/ha) | ORYSAT herbicidal effect rating ([5]; Rate 0.2500 kg/ha) | MOOVA herbicidal effect rating ([6]; Rate 0.1250 kg/ha) | MOOVA herbicidal effect rating ([6]; Rate 0.2500 kg/ha) | also measured
C=CCOc1nc(C(F)(F)F)cc(=O)n1-c1ccc2snc(-c3cc(C)ccc3OC)c2c1 [Example 245, 2-(Allyloxy)-3-[3-(6-methoxy-m-tolyl)-1,2-benzisothiazol-5-yl]-6-(trifluoromethyl)-4(3H)-pyrimidinone] | 0.0 | 0.0 | 0.0 | 0.0 | 0.0 | 0.0 | 0.0 | 0.0 | 0.0 | 0.0 | 0.0 | 0.0 | 0.0 | 0.0 | 0.0 | 0.0 | 0.0 | 0.0 | 0.0 | 0.0 | ORYSAT herbicidal effect rating ([5]; Rate 0.0313 kg/ha): 0.0; ORYSAT herbicidal effect rating ([5]; Rate 0.0625 kg/ha): 0.0; MOOVA herbicidal effect rating ([6]; Rate 0.0313 kg/ha): 0.0; MOOVA herbicidal effect rating ([6]; Rate 0.0625 kg/ha): 0.0
CCOc1nc(C(F)(F)F)cc(=O)n1-c1ccc2snc(-c3cc(C)ccc3OCC(=O)OC)c2c1 [Example 246, Methyl {{2-{5-[2-ethoxy-6-oxo-4-(trifluoromethyl)-1(6H)-pyrimidinyl]-1,2-benzisothiazol-3-yl}-p-tolyl}oxy}acetate] | 0.0 | 0.0 | 2.0 | 2.0 | 6.0 | 7.0 | 9.0 | 9.0 | 0.0 | 0.0 | 0.0 | – | 0.0 | 2.0 | 4.0 | 4.0 | 2.0 | 2.0 | 9.0 | 9.0 | ORYSAT herbicidal effect rating ([5]; Rate 0.0313 kg/ha): 0.0; ORYSAT herbicidal effect rating ([5]; Rate 0.0625 kg/ha): 1.0; MOOVA herbicidal effect rating ([6]; Rate 0.0313 kg/ha): 9.0; MOOVA herbicidal effect rating ([6]; Rate 0.0625 kg/ha): 9.0
Cn1c(C(F)(F)F)cc(=O)n(-c2ccc3snc(C(C)(C)C#N)c3c2)c1=O [Example 256, 1,2-Benzisothiazole-3-acetonitrile, 5-[3,6-dihydro-3-methyl-2,6-dioxo-4-(trifluoromethyl)-1(2H)-pyrimidinyl)-alpha,alpha-dimethyl-] | – | – | 4.0 | 8.0 | – | – | 7.0 | 9.0 | – | – | 6.0 | 9.0 | – | – | 9.0 | 9.0 | 8.0 | 9.0 | 9.0 | 9.0 | SAGPY herbicidal effect rating ([1]; Rate 0.0320 kg/ha): 0.0; SAGPY herbicidal effect rating ([1]; Rate 0.0620 kg/ha): 0.0; ECHORC herbicidal effect rating ([2]; Rate 0.0320 kg/ha): 1.0; ECHORC herbicidal effect rating ([2]; Rate 0.0620 kg/ha): 3.0; CYPSE herbicidal effect rating ([3]; Rate 0.0320 kg/ha): 0.0; CYPSE herbicidal effect rating ([3]; Rate 0.0620 kg/ha): 2.0; CYPIR herbicidal effect rating ([4]; Rate 0.0320 kg/ha): 8.0; CYPIR herbicidal effect rating ([4]; Rate 0.0620 kg/ha): 9.0; ORYSAT herbicidal effect rating ([5]; Rate 0.0320 kg/ha): 6.0; ORYSAT herbicidal effect rating ([5]; Rate 0.0620 kg/ha): 8.0; MOOVA herbicidal effect rating ([6]; Rate 0.0320 kg/ha): 8.0; MOOVA herbicidal effect rating ([6]; Rate 0.0620 kg/ha): 9.0

From EP0908457B1, “3-(1,2-benzisothiazol- and isoxazol-5-Y1)-2,4(1H,3H)-pyrimidinedione or thione and 3-(1,2-benzisothiazol- and isoxazol-5-y1)-4(3H)-pyrimidinone or thione herbicidal agents” (BASF AKTIENGESELLSCHAFT, priority 1997, dated 1999)
